These compounds were tested against T1, recombinant human mPGES-1 (Homo sapiens, UniProt O14684) (assay: mPGES-1 inhibition test (microsomes, PGH2 substrate, HTRF detection of PGE2)). Conditions: inhibition of mPGES-1 at 10 μM.
T1 construct: made in house; host or cells: Rosetta E. coli (microsomal/membrane fraction)
T1 sequence (O14684 1-152): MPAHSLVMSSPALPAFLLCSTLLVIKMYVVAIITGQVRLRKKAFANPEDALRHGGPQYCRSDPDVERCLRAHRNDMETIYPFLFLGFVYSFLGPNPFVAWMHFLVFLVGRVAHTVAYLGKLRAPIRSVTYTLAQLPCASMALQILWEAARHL
Type: biochemical
Description: Microsomes from Rosetta E. coli bacteria expressing recombinant human mPGES-1 is dissolved in 0.1 M KPi pH 7.4 buffer containing 2.5 mM GSH. 50 μl of the enzyme is subsequently dispensed in a 384-well plate. 0.5 μl of the inhibitor dissolved in DMSO at is thereafter added to each well and incubated for 25 minutes at room temperature. Subsequently, 2 μl of PGH2 dissolved in an appropriate solvent is added to each well and after one minute the acidified stop solution containing FeCl2 is added. 4 μl of the total volume is transferred to a separate plate and diluted 750-fold in two separate steps before HTRF detection of PGE2.
The HTRf detection is performed by the use of a commercially available kit from CisBio essentially according to the manufacturer's protocol. Briefly, 10 μl of the diluted sample is transferred to a white 384-well plate. 5 μl of d2 and 5 μl Eu3+-Cryptate labeled anti-PGE2 is added to each well containing samples by the use of a Multidrop. The plate is covered with a plastic self-adhesive film, centrifuged at 1200 rpm for 1 minute and subsequently stored at +4° C. over night.
After over night incubation the fluorescence is measured by the use of an appropriate microplate reader. The fluorescence of europium cryptate, and d2 are measured using the following excitation and emission wavelength, europium cryptate: λmax^ex=307 nm, λmax^em=620 nm and d2: λmax^ex=620 nm, λmax^em=665 nm), respectively. The extent of the specific FRET is measured as a ratio of the emission intensity at 665 nm vs. that at 620 nm. A standard curve using synthetic PGE2 is used to quantify the amount of PGE2 in unknown samples.
`O=C(NC1CCCCC1)c1ccc2nc(Nc3c(Cl)cccc3Cl)[nH]c2c1` [Example 137, 2-(2,6-Dichloro-phenylamino)-3H-benzimidazole-5-carboxylic acid cyclohexylamide] gave an inhibition at 10 µM of 100%.
For `Cc1nc(NC(=O)c2cc3nc(Nc4c(Cl)cccc4Cl)[nH]c3cc2F)cc2c1CCCC2` [Example 138, 2-(2,6-Dichloro-phenylamino)-6-fluoro-1H-benzimidazole-5-carboxylic acid (1-methyl-5,6,7,8-tetrahydro-isoquinolin-3-yl)-amide], the inhibition at 10 µM was 100%.
`Cc1nc(NC(=O)c2ccc3c(c2)nc(Nc2c(Cl)cccc2Cl)n3C)cc2c1CCCC2` [Example 139, 2-(2,6-Dichloro-phenylamino)-1-methyl-1H-benzimidazole-5-carboxylic acid (1-methyl-5,6,7,8-tetrahydro-isoquinolin-3-yl)-amide] showed an inhibition at 10 µM of 98%.
In the case of `CC(C)(C)CNC(=O)c1ccc2[nH]c(Nc3c(Cl)cccc3Cl)nc2c1` [Example 140, 2-(2,6-Dichloro-phenylamino)-1H-benzimidazole-5-carboxylic acid (2,2-dimethyl-propyl)-amide], the inhibition at 10 µM is reported as 80%.
`O=C(Nc1cc(Cl)ccn1)c1cc2[nH]c(Nc3c(Cl)cccc3Cl)nc2cc1F` [Example 142, 2-(2,6-Dichloro-phenylamino)-6-fluoro-3H-benzimidazole-5-carboxylic acid (4-chloro-pyridin-2-yl)-amide] showed an inhibition at 10 µM of 100%.
`O=C(Nc1cccc(Cl)c1)c1cc2[nH]c(Nc3c(Cl)cccc3Cl)nc2cc1F` [Example 143, 2-(2,6-Dichloro-phenylamino)-6-fluoro-3H-benzimidazole-5-carboxylic acid (3-chloro-phenyl)-amide] showed an inhibition at 10 µM of 100%.
Compound `O=C(Nc1ccc(Br)cc1)c1cc2[nH]c(Nc3c(Cl)cccc3Cl)nc2cc1F` [Example 144, 2-(2,6-Dichloro-phenylamino)-6-fluoro-3H-benzimidazole-5-carboxylic acid (4-bromo-phenyl)-amide] has an inhibition at 10 µM of 97%.
Work on `Cc1cc2[nH]c(Nc3c(Cl)cccc3Cl)nc2cc1C(=O)Nc1ccc(Cl)c(F)c1` [Example 145, 2-(2,6-Dichloro-phenylamino)-6-methyl-1H-benzimidazole-5-carboxylic acid (4-chloro-3-fluorophenyl)-amide] yielded an inhibition at 10 µM of 100%.
Work on `O=C(NC1CCc2ccccc2C1)c1ccc2nc(Nc3c(Cl)cccc3Cl)[nH]c2c1` (centres unmarked) [Example 146, 2-(2,6-Dichloro-phenylamino)-3H-benzimidazole-5-carboxylic acid (1,2,3,4-tetrahydro-naphthalen-2-yl)-amide] yielded an inhibition at 10 µM of 97%.
In the case of `O=C(NC1CCC(F)(F)CC1)c1ccc2nc(Nc3c(Cl)cccc3Cl)[nH]c2c1` [Example 147, 2-(2,6-Dichloro-phenylamino)-3H-benzimidazole-5-carboxylic acid (4,4-difluoro-cyclohexyl)-amide], the inhibition at 10 µM is reported as 94%.
Work on `O=C(NC1CCC(F)(F)CC1)c1cc2[nH]c(Nc3c(Cl)cccc3Cl)nc2cc1F` [Example 149, 2-(2,6-Dichloro-phenylamino)-6-fluoro-3H-benzimidazole-5-carboxylic acid (4,4-difluoro-cyclohexyl)-amide] yielded an inhibition at 10 µM of 100%.
With `O=C(NC1CCc2ccccc2C1)c1cc2[nH]c(Nc3c(Cl)cccc3Cl)nc2cc1F` (centres unmarked) [Example 150, 2-(2,6-Dichloro-phenylamino)-6-fluoro-3H-benzimidazole-5-carboxylic acid (1,2,3,4-tetrahydro-naphthalen-2-yl)-amide] the inhibition at 10 µM was 100%.
Work on `O=C(NC1COc2ccccc2C1)c1cc2[nH]c(Nc3c(Cl)cccc3Cl)nc2cc1F` (centres unmarked) [Example 152, 2-(2,6-Dichloro-phenylamino)-6-fluoro-1H-benzimidazole-5-carboxylic acid chroman-3-ylamide] yielded an inhibition at 10 µM of 95%.
Compound `O=C(NC1COc2ccccc2C1)c1ccc2[nH]c(Nc3c(Cl)cccc3Cl)nc2c1` (centres unmarked) [Example 153, 2-(2,6-Dichloro-phenylamino)-1H-benzimidazole-5-carboxylic acid chroman-3-ylamide] has an inhibition at 10 µM of 98%.
In the case of `O=C(N[C@H]1CC[C@H](C(F)(F)F)CC1)c1cc2nc(Nc3c(Cl)cccc3Cl)[nH]c2cc1F` [Example 155, 2-(2,6-Dichloro-phenylamino)-6-fluoro-1H-benzimidazole-5-carboxylic acid (trans-4-trifluoromethyl-cyclohexyl)-amide], the inhibition at 10 µM is reported as 100%.
`Cn1c(Nc2c(Cl)cccc2Cl)nc2cc(C(=O)NC3CCC(F)(F)CC3)c(F)cc21` [Example 156, 2-(2,6-Dichloro-phenylamino)-6-fluoro-1-methyl-1H-benzimidazole-5-carboxylic acid (4,4-difluoro-cyclohexyl)-amide] gave an inhibition at 10 µM of 100%.
In the case of `Cn1c(Nc2c(Cl)cccc2Cl)nc2cc(C(=O)NC3CCC(C)(C)CC3)c(F)cc21` [Example 157, 2-(2,6-Dichloro-phenylamino)-6-fluoro-1-methyl-1H-benzimidazole-5-carboxylic acid (4,4-dimethyl-cyclohexyl)-amide], the inhibition at 10 µM is reported as 100%.
For `Cn1c(Nc2c(Cl)cccc2Cl)nc2cc(C(=O)N[C@H]3CC[C@H](C(F)(F)F)CC3)c(F)cc21` [Example 158, 2-(2,6-Dichloro-phenylamino)-6-fluoro-1-methyl-1H-benzimidazole-5-carboxylic acid (trans-4-trifluoromethyl-cyclohexyl)-amide], the inhibition at 10 µM was 100%.
`Cn1c(Nc2c(Cl)cccc2Cl)nc2cc(C(=O)NC3CCCCC3)c(F)cc21` [Example 159, 2-(2,6-Dichloro-phenylamino)-6-fluoro-1-methyl-1H-benzimidazole-5-carboxylic acid cyclohexylamide] was tested, and the inhibition at 10 µM was 98%.
`Cn1c(Nc2c(Cl)cccc2Cl)nc2cc(C(=O)NC3COc4ccccc4C3)c(F)cc21` (centres unmarked) [Example 160, 2-(2,6-Dichloro-phenylamino)-6-fluoro-1-methyl-1H-benzimidazole-5-carboxylic acid chroman-3-ylamide] was tested, and the inhibition at 10 µM was 98%.
`O=C(N[C@H]1CC[C@H](C(F)(F)F)CC1)c1ccc2[nH]c(Nc3c(Cl)cccc3Cl)nc2c1` [Example 161, 2-(2,6-Dichloro-phenylamino)-1H-benzimidazole-5-carboxylic acid (trans-4-trifluoromethyl-cyclohexyl)-amide] gave an inhibition at 10 µM of 98%.
`Cn1c(Nc2c(Cl)cccc2Cl)nc2cc(C(=O)NC3CCc4ccccc4C3)c(F)cc21` (centres unmarked) [Example 162, 2-(2,6-Dichloro-phenylamino)-6-fluoro-1-methyl-1H-benzimidazole-5-carboxylic acid (1,2,3,4-tetrahydro-naphthalen-2-yl)-amide] showed an inhibition at 10 µM of 100%.
For `Cn1c(Nc2c(Cl)cccc2Cl)nc2cc(C(=O)NC3CC4CCCCC4C3)c(F)cc21` (centres unmarked) [Example 163, 2-(2,6-Dichloro-phenylamino)-6-fluoro-1-methyl-1H-benzimidazole-5-carboxylic acid (octahydro-inden-2-yl)-amide], the inhibition at 10 µM was 100%.
Compound `Cn1c(Nc2c(Cl)cccc2Cl)nc2cc(C(=O)NC3(C)CCCCC3)c(F)cc21` [Example 164, 2-(2,6-Dichloro-phenylamino)-6-fluoro-1-methyl-1H-benzimidazole-5-carboxylic acid (1-methyl-cyclohexyl)-amide] has an inhibition at 10 µM of 100%.
With `Cn1c(Nc2c(Cl)cccc2Cl)nc2cc(C(=O)NC34CC5CC(CC(C5)C3)C4)c(F)cc21` [Example 165, 2-(2,6-Dichloro-phenylamino)-6-fluoro-1-methyl-1H-benzimidazole-5-carboxylic acid adamantan-1-ylamide] the inhibition at 10 µM was 98%.
Compound `CCCCCCCCNC(=O)c1cc2nc(Nc3c(Cl)cccc3Cl)n(C)c2cc1F` [Example 166, 2-(2,6-Dichloro-phenylamino)-6-fluoro-1-methyl-1H-benzimidazole-5-carboxylic acid octylamide] has an inhibition at 10 µM of 100%.
`Cn1c(Nc2c(Cl)cccc2Cl)nc2cc(C(=O)Nc3ccc(Br)cc3)c(F)cc21` [Example 167, 2-(2,6-Dichloro-phenylamino)-6-fluoro-1-methyl-1H-benzimidazole-5-carboxylic acid (4-bromo-phenyl)-amide] gave an inhibition at 10 µM of 93%.
`O=C(N[C@H]1CC[C@@H](C(F)(F)F)CC1)c1ccc2[nH]c(Nc3c(Cl)cccc3Cl)nc2c1` [Example 168, 2-(2,6-Dichloro-phenylamino)-1H-benzimidazole-5-carboxylic acid (cis-4-trifluoromethyl-cyclohexyl)-amide] showed an inhibition at 10 µM of 100%.
Work on `O=C(N[C@H]1CC[C@@H](C(F)(F)F)CC1)c1cc2nc(Nc3c(Cl)cccc3Cl)[nH]c2cc1F` [Example 169, 2-(2,6-Dichloro-phenylamino)-6-fluoro-1H-benzimidazole-5-carboxylic acid (cis-4-trifluoromethyl-cyclohexyl)-amide] yielded an inhibition at 10 µM of 94%.

Source: patent publication US8916599B2, “1H-benz imidazole-5-carboxamides as anti-inflammatory agents” (Orexo AB, priority 2008, dated 2014)
